# Laboratory results taken from US8163509B2, “Biological markers predictive of anti-cancer response to insulin-like growth factor-1 receptor kinase inhibitors” (The Regents of the University of Colorado, A Body Corporate, priority 2008, dated 2012).
# Where two headings read alike, the source gives them in different places.
# Assays:
# [1] = test system: HCT116 CRC cell line; experiment: Gene expression analysis post PQIP exposure (gene array); type: cell-based, human; settings: 400 nM PQIP, 72 hours
# Protocol: (§1) Microarray Analysis: Cells were plated at 2×106 in 6-well plates 24 h prior to harvest. After 24 hours cells were rinsed twice with PBS, and RNA was prepared using a RNeasy Plus mini kit (Qiagen, Valencia, Calif.). RNA stabilization, isolation, and microarray sample labeling were carried out using standard methods for reverse transcription and one round of in vitro transcription. HG-U133 set microarrays were hybridized with 10 μg of cRNA and processed according to the protocols of the manufacturer (Affymetrix). Hybridization signals and detection calls were generated in BioConductor, using the germa and affy software packages. Microarray data was analyzed using BRB ArrayTools v3.2 developed by Dr. Richard Simon and Amy Peng Lam.
# (§2) Gene Expression Analysis Post PQIP Exposure: In order to identify genes that are modulated following exposure to PQIP, 5 sensitive and 5 resistant CRC cell lines were treated with 400 nM PQIP for 72 hours, total RNA was purified, and gene array analysis was performed as described previously. The gene expression profiles following PQIP exposure were compared to the respective untreated profiles. To characterize changes in gene expression profile, one PQIP resistant (HCT116) and one PQIP sensitive (HT29) tumor cell type was examined, and caldesmon, metallothioneins, ALDH1A1, and MAP2K6 expression levels were analyzed.
# [2] = test system: HT29 CRC cell line; experiment: as above; type: cell-based, human; settings: 400 nM PQIP, 72 hours
# Protocol: as §1, §2
# [3] = test system: GEO CRC cell line; experiment: SRB proliferation assay, 72 h; type: cell-based; settings: Homo sapiens
# Protocol: Cell proliferation was evaluated by SRB following exposure to OSI-906 for 72 hours. Cells were plated at an optimized density in 96-well plates, incubated overnight at 37° C., and then exposed to a serial dilution of OSI-906. After 72 hours incubation, cells were fixed with trichloroacetic acid and an SRB was performed as described in materials and methods.
# Cell Lines and Culture: Twenty-seven human colon cancer cell lines, were obtained from American Type Culture Collection (Manassas, Va.). The GEO cells were a generous gift from Dr. Fortunato Ciardiello (Cattedra di Oncologia Medica, Dipartimento Medico-Chirurgico di Internistica Clinica e Sperimentale “F Magrassi e A Lanzara,” Seconda Università degli Studi di Napoli, Naples). All cells except GEO were grown in RPMI medium supplemented with 10% fetal bovine serum, 1% non-essential amino acids, 1% penicillin/streptomycin and were maintained at 37° C. in an incubator under an atmosphere containing 5% CO2. GEO cells were grown in DMEM/F12 supplemented with 10% fetal bovine serum, 1% non-essential amino acids, 1% penicillin/streptomycin. The cells were routinely screened for the presence of mycoplasma (MycoAlert, Cambrex Bio Science, Baltimore, Md.) and were exposed to OSI-906 when they reached approximately 70% confluence. OSI-906 was provided by OSI Pharmaceuticals, (Boulder, Colo.) and prepared as a 10 mM stock solution in DMSO.
# [4] = test system: human tumor explants; experiment: In vivo growth study, primary CRC xenografts (human tumor explants); parameters: species or system athymic nude mice; settings: OSI-906 40 mg/kg, 28 days
# Protocol: In vivo Growth Studies: Five to six-week-old female athymic nude mice (Harlan Sprague Dawley) were used. The research protocol was approved by the University of Colorado Denver, Animal Care and Use Committee. Mice were caged in groups of five and kept on 12-h light/dark cycle and provided with sterilized food and water ad libitum. All of the studies were conducted in accordance with the NIH guidelines for the care and use of laboratory animals, and animals were housed in a facility accredited by the American Association for Accreditation of Laboratory Animal Care. Animals were allowed to acclimate for at least 7 days before any handling.
# The primary CRC xenografts were generated according to published methodology (Rubio-Viqueira B, et al. Clin Cancer Res 2006; 12(15):4652-61.). Briefly, surgical specimens of patients operated at the University of Colorado Hospital were reimplanted s.c. to 5 mice for each patient. […] Mice were monitored daily for signs of toxicity and were weighed twice weekly. Tumor size was evaluated two times per week by caliper measurements using the following formula: tumor volume=[length×width^2][…]. Relative tumor growth index was calculated by relative tumor growth of treated mice divided by relative tumor growth of control mice since the initiation of therapy (T/C). […]
structure (smiles),measurement,setting,value
"CN1CCN([C@H]2C[C@@H](c3nc(-c4ccc5ccc(-c6ccccc6)nc5c4)c4c(N)nccn43)C2)CC1 [PQIP, cis-3-[3-(4-Methyl-piperazin-1-yl)-cyclobutyl]1-(2-phenyl-quinolin-7-yl)-imidazo[1,5-a]pyrazin-8-ylamine]","Fold change of post exposure PQIP to untreated, ALDH1A1 expression",[1],2.3 fold
same,"Fold change of post exposure PQIP to untreated, CALD1 expression",[1],1.9 fold
same,"Fold change of post exposure PQIP to untreated, MAP2K6 expression",[1],0.7 fold
same,"Fold change of post exposure PQIP to untreated, MT1E expression",[1],1.2 fold
same,"Fold change of post exposure PQIP to untreated, MT1F expression",[1],1.6 fold
same,"Fold change of post exposure PQIP to untreated, MT1G expression",[1],1.1 fold
same,"Fold change of post exposure PQIP to untreated, MT1H expression",[1],1.8 fold
same,"Fold change of post exposure PQIP to untreated, MT1M expression",[1],1.5 fold
same,"Fold change of post exposure PQIP to untreated, MT1X expression",[1],2.0 fold
same,"Fold change of post exposure PQIP to untreated, MT2A expression",[1],1.0 fold
same,"Fold change of post exposure PQIP to untreated, ALDH1A1 expression",[2],0.56 fold
same,"Fold change of post exposure PQIP to untreated, CALD1 expression",[2],1.5 fold
same,"Fold change of post exposure PQIP to untreated, MAP2K6 expression",[2],0.87 fold
same,"Fold change of post exposure PQIP to untreated, MT1E expression",[2],12.5 fold
same,"Fold change of post exposure PQIP to untreated, MT1F expression",[2],10.8 fold
same,"Fold change of post exposure PQIP to untreated, MT1G expression",[2],4.5 fold
same,"Fold change of post exposure PQIP to untreated, MT1H expression",[2],11.0 fold
same,"Fold change of post exposure PQIP to untreated, MT1M expression",[2],15.2 fold
same,"Fold change of post exposure PQIP to untreated, MT1X expression",[2],16.0 fold
same,"Fold change of post exposure PQIP to untreated, MT2A expression",[2],8.1 fold
"C[C@]1(O)C[C@@H](c2nc(-c3ccc4ccc(-c5ccccc5)nc4c3)c3c(N)nccn32)C1 [OSI-906, cis-3-[8-amino-1-(2-phenyl-quinolin-7-yl)-imidazo[1,5-a]pyrazin-3-yl]-1-methyl-cyclobutanol]",IC50,"[3]; 72 hours, read-out: IC50, proliferation, OSI-906 (SRB)",≤ 1500 nM
same,IC50,[3]; read-out: S/I/R to OSI-906,≤ 1500 nM
same,"TGI (relative tumor growth index, T/C)",[4]; three explants predicted as resistant,130-200%
same,"TGI (relative tumor growth index, T/C)",[4]; two explants predicted as sensitive,21-28%
